# Entries after “also recorded” stand apart in the source; their conditions may differ. Where two headings read alike, the source gives them in different places. Marks after values point to notes of the source that are not given here.
# How the values were obtained:
# TauA = target: T1, TauA (Escherichia coli, UniProt Q47537); test: Isothermal titration calorimetry, ligand binding to wild-type TauA; set-up: species or system E. coli
# T1 construct: His tag with TEV site (pEHisTEV vector) (cleaved yes); made in house; host or cells: E. coli BL21 (DE3)
# T1 sequence (Q47537 23-320): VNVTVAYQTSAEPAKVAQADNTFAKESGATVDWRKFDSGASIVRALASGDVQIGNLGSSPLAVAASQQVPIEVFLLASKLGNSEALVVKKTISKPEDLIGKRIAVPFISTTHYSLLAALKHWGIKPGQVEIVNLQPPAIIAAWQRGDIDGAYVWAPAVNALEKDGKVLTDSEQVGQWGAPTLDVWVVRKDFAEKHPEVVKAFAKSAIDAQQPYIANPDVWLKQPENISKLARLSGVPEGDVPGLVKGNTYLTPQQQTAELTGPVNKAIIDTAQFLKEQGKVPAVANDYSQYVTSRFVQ
# Protocol: The gene encoding for the mature TauA from E. coli (accession number: K12-Q47537) was cloned into the pEHisTEV vector. BL21 (DE3) cells transformed with pEHisTEVtauA plasmid were grown at 310 K. Isopropyl β-D-1-thiogalactopyranoside was added to a final concentration of 0.5 mM when the culture reached an OD600 of 0.6, and the growth continued at 298 K for 18 h. Cells were harvested by centrifugation (6000×g) and resuspended in PBS supplemented with 20 mM imidazole and 3 mM MgCl2. Cells were lysed by sonication (10 cycles; 10 s per cycle with 10 s interval on ice) followed by centrifugation at 30 000 g for 1 h. The supernatant was subjected to Ni-NTA affinity chromatography followed by overnight dialysis with TEV protease and size exclusion chromatography using a Superdex S-200 column equilibrated with 20 mM Tris (pH 7.5) and 150 mM NaCl. […] SDS–PAGE indicated high purity.
# (§1) Binding of ligands to TauA and mutants was measured at 298 K using ITC (MicroCal iTC200 microcalorimeter, Malvern Instruments). The protein buffer was in 20 mM Tris (pH 7.5) and 150 mM NaCl (ITC buffer). Protein and ligands were diluted to desired concentrations using ITC buffer. The pH of protein and ligand was adjusted at 277 K. An amount of 200 µl of protein and 60 µl of ligand was added into the sample cell and injection syringe, respectively. Seventeen 2.4 µl injections were performed with a pre-injection of 0.5 µl, a 180 s interval and an injection speed of 0.5 µl/s. Control experiments were performed where ligand was injected into ITC buffer. The heat of interaction was obtained by subtracting control measurements (heat of dilution) from the experimental measurements. The baseline was generated and the concentration-normalized binding isotherm was integrated using the MicroCal Origin software (version 7). The first injection peak was deleted from the isotherm. The isotherm was fitted to a single-site binding model. Values of binding constant (Ka, M^−1), enthalpy change (ΔH, J/mol) and binding stoichiometry (n) were allowed to vary (unless mentioned specifically) during the fitting procedure. The dissociation constant (Kd, M) and entropy change (ΔS, J/mol/K) were derived from Ka, ΔH and n accordingly. The Kd value is derived from the absolute value of Ka (Kd = 1/Ka).
# TauA Asp205Ala = TauA Asp205Ala (Escherichia coli, UniProt Q47537, D205A); test: biochemical; type: binding, E. coli; details: Asp205Ala mutant
# Chain of TauA Asp205Ala (Q47537 23-320 D205A): as the sequence (Q47537 23-320) above, with D183A counted along it
# Protocol: (§2) Alanine-substituted TauA mutants (Gln30Ala, Glu106Ala, Thr132Ala and Asp205Ala) were generated by PCR using the QuikChange Lightning Site-Directed Mutagenesis Kit (Agilent Technologies). Mutations were confirmed by DNA sequencing. Mutants were expressed and purified as for the wild-type TauA.
# as §1
# TauA Gln30Ala = TauA Gln30Ala (Escherichia coli, UniProt Q47537, Q30A); test: biochemical; type: binding, E. coli; details: ITC, Gln30Ala mutant
# Chain of TauA Gln30Ala (Q47537 23-320 Q30A): as the sequence (Q47537 23-320) above, with Q8A counted along it
# Protocol: as §2, §1
# TauA Thr132Ala = TauA Thr132Ala (Escherichia coli, UniProt Q47537, T132A); test: biochemical; type: binding, E. coli; details: Thr132Ala mutant
# Chain of TauA Thr132Ala (Q47537 23-320 T132A): as the sequence (Q47537 23-320) above, with T110A counted along it
# Protocol: as §2, §1
# TauA Glu106Ala = TauA Glu106Ala (Escherichia coli, UniProt Q47537, E106A); type: binding, E. coli; details: ITC, Glu106Ala mutant
# Chain of TauA Glu106Ala (Q47537 23-320 E106A): as the sequence (Q47537 23-320) above, with E84A counted along it
# Protocol: as §2
# as §1, with “Values of binding constant (Ka, M^−1), enthalpy change (ΔH, J/mol) and binding stoichiometry (n) were allowed to vary (unless mentioned specifically) during the fitting procedure. The dissociation constant (Kd, M) and entropy change (ΔS, J/mol/K) were derived from Ka, ΔH and n accordingly. The Kd value is derived from the absolute value of Ka (Kd = 1/Ka).” left out
# [1] = stoichiometry fixed to 0.8 during data fitting
# [2] = ITC, 298 K, 20 mM Tris pH 7.5, 150 mM NaCl, read-out: Kd
# [3] = ITC, read-out: Kd (apparent affinity)
compound,measurement,setting,value
"NCCP(=O)(O)O [2-AEP, 2-Aminoethylphosphonic acid]",heat of binding to TauA (exothermic/endothermic),TauA; ITC,endothermic
same,ΔH,"TauA; ITC, 298 K",0.016 (±0.03%) kJ/mol
same,ΔS,"TauA; ITC, 298 K",2.33 J/mol/K
same,Kd,"TauA; Kd (apparent affinity), ITC",649 µM
same,Kd,"TauA; Kd, ITC, 298 K, 20 mM Tris pH 7.5, 150 mM NaCl",649 µM
same,Stoichiometry,TauA; [1],0.8 ^*
"NCCS(=O)(=O)O [taurine, 2-aminoethanesulfonic acid]",heat of binding to TauA (exothermic/endothermic),TauA; ITC,exothermic
same,ΔH,"TauA; ITC, 298 K",−61.04 (±0.08%) kJ/mol
same,Kd,TauA; [2],0.0016 µM
same,Stoichiometry,"TauA; ITC, fitted n",0.768(±0.38%)
same,Stoichiometry,TauA Asp205Ala; [1],0.8 ^*
same,ΔH,TauA Asp205Ala; ITC,−34.83 (±2%) kJ/mol
same,ΔS,TauA Asp205Ala; ITC,−2.34 J/mol/K
same,Kd,"TauA Asp205Ala; Kd, ITC, 298 K",22.9 µM
same,Kd,"TauA Asp205Ala; affinity, ITC",22.9 µM
same,ΔH,TauA Gln30Ala,−17.87 (±8%) kJ/mol
same,ΔS,TauA Gln30Ala,3.72 J/mol/K
same,Stoichiometry,TauA Gln30Ala; fitted n,0.83(±6%)
same,Kd,"TauA Gln30Ala; Kd, 298 K",3.48 µM
same,Kd,TauA Gln30Ala; affinity,3.5 µM
same,ΔH,TauA Thr132Ala; ITC,−28.76 (±8%) kJ/mol
same,ΔS,TauA Thr132Ala; ITC,−0.54 J/mol/K
same,Kd,"TauA Thr132Ala; Kd, ITC, 298 K",20.6 µM
same,Stoichiometry,TauA Thr132Ala; [1],0.8 ^*
same,Kd,"TauA Thr132Ala; affinity, ITC",20.6 µM
same,taurine binding affinity,TauA Glu106Ala,detrimental to taurine binding; also recorded: No binding affinity could be measured
"NC(=O)CNCCS(=O)(=O)O [ACES, N-(2-acetamido)-2-aminoethanesulfonic acid]",heat of binding to TauA (exothermic/endothermic),TauA; ITC,exothermic
same,ΔH,"TauA; ITC, 298 K",−1.44 (±3.3%) kJ/mol
same,ΔS,"TauA; ITC, 298 K",1.87 J/mol/K
same,Kd,TauA; [2],7.46 µM
same,Stoichiometry,"TauA; ITC, fitted n",0.79(±2.4%)
same,Kd,TauA; [3],7.4 µM
"O=S(=O)(O)CCN1CCOCC1 [MES, 2-(N-morpholino)ethanesulfonate]",heat of binding to TauA (exothermic/endothermic),TauA; ITC,endothermic
same,ΔH,"TauA; ITC, 298 K",4.74 (±0.8%) kJ/mol
same,ΔS,"TauA; ITC, 298 K",2.45 J/mol/K
same,Kd,TauA; [2],2.85 µM
same,Stoichiometry,"TauA; ITC, fitted n",0.868(±0.5%)
same,Kd,TauA; [3],2.8 µM
